Test results reported in patent US20250289786A1, “CHLORINATED MONOCARBONYL CURCUMIN COMPOUNDS, PREPARATION METHOD, AND APPLICATION” (Southwest Medical University, priority 2024, published 2025).

Assay: ABTS free radical capture ability
Format: biochemical
Details: 20 min reaction in the dark
Method: 66.2 mg of K2S2O8 was weighed and placed in a 100 mL volumetric flask, pure water was added to the scale line to prepare a 2.45 mmol/L K2S2O8 solution. 192 mg of ABTS was accurately weighed and placed in a 25 mL volumetric flask, and the newly prepared K2S2O8 solution was added for dissolving and constant volume dilution, after standing in the dark for 20 h, the ABTS mother liquor was obtained. Before use, to make the measured value more accurate, the ABTS mother liquor needs to be diluted with a PBS solution of pH7.4 until the absorbance range of the ABTS working solution at 734 nm is 0.70±0.02.
Drug concentration screening: To avoid the complete removal of free radicals by excessive drug concentration and the inability to compare the ability to capture ABTS free radicals, a preliminary screening of drug concentration is required before the formal test. A gradient concentration of compound solution was prepared, and a gradient concentration of Vit C solution was prepared as a positive control. A total of 450 μL of ABTS working solution was accurately absorbed into a 1.5 mL EP tube, and 150 μL of the gradient solution of each group of drugs was added, after 20 min of reaction in the dark, 150 μL of the reaction solution was taken and placed in a 96-well plate, the absorbance was measured by a microplate reader. Three duplicate wells were set for each concentration, and the drug concentration with absorbance between 0.2-0.7 was selected for subsequent determination.
Determination operation: After the drug concentration screening was completed, 7 concentration gradient groups were set within this concentration range. A total of 450 μL of ABTS working solution was accurately absorbed into a 1.5 mL EP tube, and 150 μL of the gradient solution of each group of drugs was added. After 20 min of reaction in the dark, 150 μL of the reaction solution was taken and placed in a 96-well plate, the absorbance was measured by a microplate reader. Three duplicate wells were set for each concentration, the positive control group was a gradient solution of Vit C, and the blank control group was an equal volume of anhydrous ethanol.

With `COc1cc(/C=C2\CNC/C(=C\c3cc(Cl)c(O)c(OC)c3)C2=O)cc(Cl)c1O` [CAK06, 3,5-bis ((E)-3-chloro-4-hydroxy-5-methoxybenzylidene) piperidin-4-one] the “IC50 values of ABTS captured” value was 44.95 µg/mL.
